Data on 21 compounds can be found in ChEMBL document CHEMBL1133230, “1-Aminomethylisoquinoline-4-carboxylates as novel dipeptidylpeptidase IV inhibitors” (Bioorg Med Chem Lett, 2000).

In this assay the target is Dipeptidyl peptidase 4 (Homo sapiens, UniProt P27487). Put plainly: In vitro inhibition of Dipeptidylpeptidase IV from Caco-2 (human colon carcinoma) cells. Format: cell-based.
Sequence of Dipeptidyl peptidase 4 (P27487 whole entry): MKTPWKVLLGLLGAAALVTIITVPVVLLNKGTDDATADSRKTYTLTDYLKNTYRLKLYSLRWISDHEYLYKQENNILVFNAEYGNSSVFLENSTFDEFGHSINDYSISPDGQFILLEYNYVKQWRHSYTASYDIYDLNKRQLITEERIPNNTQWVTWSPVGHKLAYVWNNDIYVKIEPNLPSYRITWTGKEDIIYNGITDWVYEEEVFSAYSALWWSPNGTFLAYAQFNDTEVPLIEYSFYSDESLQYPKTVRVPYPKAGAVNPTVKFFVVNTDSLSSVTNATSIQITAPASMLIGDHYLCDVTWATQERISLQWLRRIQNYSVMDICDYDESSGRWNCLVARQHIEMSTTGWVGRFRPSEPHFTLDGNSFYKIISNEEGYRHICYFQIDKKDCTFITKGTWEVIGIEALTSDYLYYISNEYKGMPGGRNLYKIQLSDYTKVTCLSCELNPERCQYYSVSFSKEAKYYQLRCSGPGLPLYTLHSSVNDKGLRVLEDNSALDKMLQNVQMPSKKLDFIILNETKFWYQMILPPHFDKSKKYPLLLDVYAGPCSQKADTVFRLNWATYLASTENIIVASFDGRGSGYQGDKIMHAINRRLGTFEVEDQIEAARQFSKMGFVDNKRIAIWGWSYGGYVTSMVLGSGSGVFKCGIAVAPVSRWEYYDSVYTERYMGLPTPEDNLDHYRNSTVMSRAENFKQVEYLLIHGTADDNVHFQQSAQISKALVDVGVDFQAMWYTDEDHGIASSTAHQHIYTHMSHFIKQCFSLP
On to `CCOC(=O)c1cnc(CN)c2ccc(OC)cc12`, for which the IC50 (in general, the concentration at which inhibition is half-maximal) was 207 µM.
The figure for `CCOC(=O)c1cnc(CN)c2cc(OC)c(OCC)cc12` is 4.7 µM.
`CCOC(=O)c1cnc(CN(C)C)c2cc(OC)c(OC)cc12` registered an IC50 of 948 µM.
The result for `CCOC(=O)c1cnc(CNC)c2cc(OC)c(OC)cc12` reads 731 µM; that for `CCOC(=O)Cc1cnc(CN)c2cc(OC)c(OC)cc12`, 17 µM; that for `CCCNC(=O)c1cnc(CN)c2cc(OC)c(OC)cc12`, 51.4 µM.
The figure for `CCOC(=O)c1cnc(CN)c2c(OC)c(OC)c(OC)cc12` is 1.1 µM; for `CCOC(=O)c1cnc(CN)c2cc(OC)c(OC)cc12` it is 3.4 µM; for `COc1cc2c(C=O)cnc(CN)c2cc1OC` it is 277 µM.
The result for `CCOC(=O)/C=C/c1cnc(CN)c2cc(OC)c(OC)cc12` reads 18 µM.
`COc1cc2c(C(N)=O)cnc(CN)c2cc1OC` showed an IC50 of 170 µM.
As to `CCOC(=O)c1cnc(CN)c2cc(OC)c(OC)c(OC)c12`, inhibition was half-maximal at 18 µM (IC50).
The figure for `CCOC(=O)c1cnc(CN)c2cc(O)c(OC)cc12` is 14 µM.
The figure for `CCOC(=O)CCc1cnc(CN)c2cc(OC)c(OC)cc12` is 52.6 µM; for `CCOC(=O)c1cnc(CCN)c2cc(OC)c(OC)cc12` it is 746 µM; for `CCOC(=O)c1cnc(CN)c2c(OC)ccc(OC)c12` it is 2.4 µM.
The result for `CCOC(=O)c1cnc(CN)c2cc(OCC)c(OC)cc12` reads 6.7 µM.
In turn, `COc1cc2c(C(=O)O)cnc(CN)c2cc1OC` gave an IC50 of 103 µM.
The result for `CCOC(=O)Nc1cnc(CN)c2cc(OC)c(OC)cc12` reads 2.3 µM; that for `CCCOc1cc2c(CN)ncc(C(=O)OCC)c2cc1OC`, 8.4 µM.
Turning to `COc1cc2c(CO)cnc(CN)c2cc1OC`, the IC50 stood at 31.8 µM.
